Test results published in patent US8841413B2, “Antidiabetic compounds” (Cadila Healthcare Limited, priority 2006, dated 2014).
Like-named read-outs stand apart in the source and are kept apart here.

What was measured:
DPP IV = DPP IV (Homo sapiens, UniProt P27487); assay: Stability against DPP IV enzyme; format: in vitro ADME; details: 2 μM, 37° C.; for half-life: read-out: half-life (t1/2) with DPP-IV enzyme
Procedure: (§1) Reactions were terminated by the addition of TFA/H2O (15 mL, 10% (v/v)). […] The column was equilibrated with TFA/H2O, at a flow rate of 1 mL/min. […] The absorbance was monitored at 206 nm using UV detector and peaks were collected manually prior to ESI-MS analysis.

Human GLP-1 receptor = molecular target: T1, Human GLP-1 receptor (Homo sapiens, UniProt P43220); format: cell-based
T1 construct: The full-length cDNA was cloned in pcDNA3.1(+); expressed in transfected cells
T1 sequence (P43220 24-463): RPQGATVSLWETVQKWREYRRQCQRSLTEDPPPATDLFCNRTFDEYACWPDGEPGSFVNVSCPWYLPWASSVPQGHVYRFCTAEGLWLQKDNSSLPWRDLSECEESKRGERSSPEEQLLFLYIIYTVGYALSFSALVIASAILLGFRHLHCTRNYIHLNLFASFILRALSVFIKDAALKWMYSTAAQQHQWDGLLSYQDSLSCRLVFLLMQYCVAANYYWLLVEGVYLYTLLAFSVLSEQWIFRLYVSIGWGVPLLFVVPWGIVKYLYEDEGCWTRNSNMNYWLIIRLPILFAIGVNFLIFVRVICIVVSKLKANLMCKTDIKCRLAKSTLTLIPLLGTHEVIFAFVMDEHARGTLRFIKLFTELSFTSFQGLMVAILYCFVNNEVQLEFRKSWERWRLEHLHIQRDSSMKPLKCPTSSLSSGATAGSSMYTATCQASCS
Procedure: The novel peptidomimetics were screened for Human GLP-1 receptor (HGLP-1 R) agonist activity (in vitro), using the cAMP cell-based assay, in stably transfected CHO/human GLP1R cells. […] CHO cells were grown in Ham's F12 medium containing L-Glutamine (2 mM), HEPES (25 mM), NaHCO3 (1.1 g/L) and supplemented with NewBorn Calf Serum (NBCS; 10%), Penicillin (50 U/ml (v/v)) and Streptomycin (50 ug/ml (v/v)). Cells were split every 3 days 1:8.
The cDNA encoding the human GLP-1 receptor was isolated by RT-PCR according to standard protocol. The full-length cDNA was cloned in pcDNA3.1(+). […] Clones expressing the receptor were generated by G418 (800 μg/ml active, Sigma) selection. The stable clones were thereafter maintained at 500 ug/ml (G418). The selected clone was used between passages 9-25 for cAMP assays.
The trypsin was inactivated using Ham's F12 medium containing 10% NBCS and the cells were suspended in 2 ml of complete medium. […] The medium was aspirated off from the 12 well plate and the cells were washed once using Ham's F12 (plain). […] The cells were incubated with the test compounds for 30 min in humidified atmosphere and 37° C. After the incubation, the medium was removed and cells were washed once with plain Ham's F12. Subsequently, the cells were lysed by adding 500 ul of ice cold 0.1 N HCl to each well and shaking for 30 minutes at 200 rpm. […] The total cAMP was estimated from the sample according to the manufacturer's protocol using Cyclic AMP immunoassay kit (R&D systems, Minneapolis. MN). The remaining supernatant is used to determine the protein concentration using micro BCA (Sigma). Data is calculated as percent of control (Vehicle: water) and expressed as Mean±SD.

[1] = Stability in simulated gastric fluid; format: in vitro ADME; details: 2 μM, 37° C., pH 1.5, pepsin; for half-life: simulated gi fluid, read-out: half-life (t1/2) in simulated gastric fluid
Procedure: as §1

[2] = Stability in simulated intestinal fluid; format: in vitro ADME; details: 2 μM, 37° C., pH 7.5; for half-life: simulated gi fluid, read-out: half-life (t1/2) in simulated intestinal fluid
Procedure: as §1

[3] = Stability against liver microsomes; format: in vitro ADME, human; details: 2 μM, 37° C.; for half-life: human, microsomes, read-out: half-life (t1/2) with liver microsomes
Procedure: as §1

[4] = Stability in human plasma; format: in vitro ADME; details: 2 μM, 37° C.; for half-life: human, plasma, read-out: half-life (t1/2) in human plasma
Procedure: as §1

Sequence of DPP IV (P27487 whole entry, species assumed): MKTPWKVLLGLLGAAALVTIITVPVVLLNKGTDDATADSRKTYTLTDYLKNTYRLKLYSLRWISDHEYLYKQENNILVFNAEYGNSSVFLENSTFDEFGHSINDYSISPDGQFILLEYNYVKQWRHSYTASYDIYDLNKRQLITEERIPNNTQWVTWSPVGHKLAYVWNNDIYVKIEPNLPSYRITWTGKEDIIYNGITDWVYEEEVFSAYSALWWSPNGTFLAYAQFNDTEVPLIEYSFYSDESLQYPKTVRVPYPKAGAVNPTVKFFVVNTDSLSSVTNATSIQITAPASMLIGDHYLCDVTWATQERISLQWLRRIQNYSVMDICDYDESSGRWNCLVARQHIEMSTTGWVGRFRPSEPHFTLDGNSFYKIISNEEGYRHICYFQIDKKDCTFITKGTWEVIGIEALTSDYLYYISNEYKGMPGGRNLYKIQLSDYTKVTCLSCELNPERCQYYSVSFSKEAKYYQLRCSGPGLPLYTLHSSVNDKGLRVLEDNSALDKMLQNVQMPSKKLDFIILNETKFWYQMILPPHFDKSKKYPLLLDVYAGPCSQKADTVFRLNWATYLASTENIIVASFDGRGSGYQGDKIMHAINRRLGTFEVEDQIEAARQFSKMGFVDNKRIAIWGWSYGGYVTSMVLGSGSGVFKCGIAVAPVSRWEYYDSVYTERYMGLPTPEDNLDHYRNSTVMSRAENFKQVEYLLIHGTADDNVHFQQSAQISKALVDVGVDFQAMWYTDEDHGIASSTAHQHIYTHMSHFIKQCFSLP

| SMILES | % degradation in 24 h when incubated with DPP-IV enzyme (DPP IV) [%] | half-life (DPP IV) [h] | Human GLP-1 R activity (cAMP release), % activity with respect to control (Human GLP-1 receptor; 1 nM test compound) [%] | Human GLP-1 R activity (cAMP release), % activity with respect to control (Human GLP-1 receptor; 10 nM test compound) [%] | Human GLP-1 R activity (cAMP release), % activity with respect to control (Human GLP-1 receptor; 100 nM test compound) [%] | Human GLP-1 R activity (cAMP release), % activity with respect to control (Human GLP-1 receptor; 1 μM test compound) [%] | Human GLP-1 R activity (cAMP release), % activity with respect to control (Human GLP-1 receptor; 10 μM test compound) [%] | % degradation in 24 h when incubated with simulated gastric fluid [1] [%] | half-life [1] [h] | % degradation in 24 h when incubated with simulated intestinal fluid [2] [%] | half-life [2] [h] | % degradation in 24 h when incubated with liver microsomes [3] [%] | half-life [3] [h] | % degradation in 24 h when incubated with human plasma [4] [%] | half-life [4] [h] |
| --- | --- | --- | --- | --- | --- | --- | --- | --- | --- | --- | --- | --- | --- | --- | --- |
| CCc1cc(OC)ccc1-c1ccc(CC(NC(=O)[C@H](CC(=O)O)NC(=O)[C@H](CO)NC(=O)[C@@H](NC(=O)[C@H](Cc2ccccc2)NC(=O)[C@@H](NC(=O)CNC(=O)[C@H](CCC(N)=O)NC(=O)C(C)(C)NC(=O)[C@@H](N)Cc2c[nH]cn2)[C@@H](C)O)[C@@H](C)O)C(=O)NC(Cc2ccc(-c3ccccc3C)cc2)C(N)=O)cc1 (single isomer, unassigned) [compound 13] | 00 | > 24 | 60 ± 0.12 | 92 ± 0.15 | 98 ± 0.18 | 99 ± 0.03 | 99 ± 0.09 | 50 | 4 | 00 | > 24 | 86 | 2 | 00 | > 24 |
| CCc1cc(OC)ccc1-c1ccc(CC(NC(=O)[C@H](CC(=O)O)NC(=O)[C@H](CO)NC(=O)[C@@H](NC(=O)[C@H](Cc2ccccc2)NC(=O)[C@@H](NC(=O)CNC(=O)[C@H](CCC(N)=O)NC(=O)C(C)(C)NC(=O)[C@@H](N)Cc2c[nH]cn2)[C@@H](C)O)[C@@H](C)O)C(=O)NC(Cc2ccc(-c3ccccc3C)nc2)C(N)=O)cc1 (single isomer, unassigned) [compound 14] | 00 | > 24 | 62 ± 0.11 | 94 ± 0.09 | 99 ± 0.06 | 99 ± 0.14 | 99 ± 0.19 | 55 | 4 | 00 | > 24 | 84 | 2 | 00 | > 24 |
| CCc1cc(OC)ccc1-c1ccc(CC(NC(=O)[C@H](CC(=O)O)NC(=O)[C@H](CO)NC(=O)[C@@H](NC(=O)[C@H](Cc2ccccc2)NC(=O)[C@@H](NC(=O)CNC(=O)[C@H](CCC(N)=O)NC(=O)C(C)(C)NC(=O)[C@@H](N)Cc2c[nH]cn2)[C@@H](C)O)[C@@H](C)O)C(=O)NC(Cc2ccc(-c3ccccc3F)cc2)C(N)=O)cc1 (single isomer, unassigned) [compound 15] | 00 | > 24 | 66 ± 0.022 | 97 ± 0.46 | 99 ± 0.41 | 99 ± 0.66 | 99 ± 0.03 | 45 | 4 | 00 | > 24 | 85 | 2 | 00 | > 24 |
| CCc1cc(OC)ccc1-c1ccc(CC(NC(=O)[C@H](CC(=O)O)NC(=O)[C@H](CO)NC(=O)[C@@H](NC(=O)[C@H](Cc2ccccc2)NC(=O)[C@@H](NC(=O)CNC(=O)[C@H](CCC(N)=O)NC(=O)C(C)(C)NC(=O)[C@@H](N)Cc2c[nH]cn2)[C@@H](C)O)[C@@H](C)O)C(=O)NC(Cc2ccc(-c3ccccc3C(F)(F)F)cc2)C(N)=O)cc1 (single isomer, unassigned) [compound 16] | 00 | > 24 | 69 ± 0.09 | 98 ± 0.07 | 99 ± 0.04 | 99 ± 0.01 | 99 ± 0.08 | 43 | 4 | 00 | > 24 | 84 | 2 | 00 | > 24 |
| CCc1cc(OC)ccc1-c1ccc(CC(NC(=O)[C@H](CC(=O)O)NC(=O)[C@H](CO)NC(=O)[C@@H](NC(=O)[C@H](Cc2ccccc2)NC(=O)[C@@H](NC(=O)CNC(=O)[C@H](CCC(N)=O)NC(=O)C2(NC(=O)[C@@H](N)Cc3c[nH]cn3)CC2)[C@@H](C)O)[C@@H](C)O)C(=O)NC(Cc2ccc(-c3ccccc3C)cc2)C(N)=O)cc1 (single isomer, unassigned) [compound 17] | 00 | > 24 | 78 ± 0.12 | 99 ± 0.15 | 99 ± 0.18 | 99 ± 0.03 | 99 ± 0.09 | 49 | 4 | 00 | > 24 | 82 | 2 | 00 | > 24 |
| CCc1cc(OC)ccc1-c1ccc(CC(NC(=O)[C@H](CC(=O)O)NC(=O)[C@H](CO)NC(=O)[C@@H](NC(=O)[C@H](Cc2ccccc2)NC(=O)[C@@H](NC(=O)CNC(=O)[C@H](CCC(N)=O)NC(=O)C2(NC(=O)[C@@H](N)Cc3c[nH]cn3)CC2)[C@@H](C)O)[C@@H](C)O)C(=O)NC(Cc2ccc(-c3ccccc3C)nc2)C(N)=O)cc1 (single isomer, unassigned) [compound 18] | 00 | > 24 | 86 ± 0.11 | 99 ± 0.09 | 99 ± 0.06 | 99 ± 0.14 | 99 ± 0.19 | 52 | 4 | 00 | > 24 | 81 | 2 | 00 | > 24 |
